Measurements reported in patent publication US12617779B2, “Self degradation-type CDK9 inhibitor prodrug and liposome encapsulating same” (Sumitomo Pharma Co., Ltd., priority 2021, dated 2026).

Tests used:
[1] = Evaluation of conversion rate to active form in buffer solution (Experimental Example 1); format: physicochemical
In short: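 HPLC read-out: residual parent and Alvocidib production rate after 0, 0.5, 1, 2 and 3 hours. Compounds sat at 25 umol/L, 37° C, in buffers from pH 5.0 to 7.4 (50 mM citrate below pH 6.0, 50 mM phosphate otherwise).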

[2] = Evaluation of conversion rate to active form in human plasma (Experimental Example 3); format: in vitro ADME; conditions: human, 0.2 μmol/L
Procedure: (§1) For Example 1, Example 2, Example 3, Example 4, Example 5, Example 6, Comparative Example 3, Comparative Example 4, Comparative Example 6, Comparative Example 7, Comparative Example 8, Comparative Example 9, Comparative Example 10 and Comparative Example 12, the attrition rate of the test compound and the conversion rate of the test compound to Alvocidib in human plasma and BALB/c mouse plasma were calculated by the following method.
(§2) The test compound was added to human plasma or BALB/c mouse plasma at a concentration of 0.2 μmol/L, and incubated at 37° C. The peak areas of the test compound and Alvocidib in the sample were determined by LC-MS/MS after 0, 30 and 60 minutes for Example 1, Example 2, Example 3, Example 4, Example 5 and Example 6, and after 0, 60 and 120 minutes for Comparative Example 3, Comparative Example 4, Comparative Example 6, Comparative Example 7, Comparative Example 8, Comparative Example 9, Comparative Example 10 and Comparative Example 12, and the attrition rate of the test compound and the conversion rate of the test compound to Alvocidib were calculated by the following formula. Attrition rate of test compound (%):(peak area of test compound in sample/peak area of test compound in sample after 0 minute)×100 Conversion rate to Alvocidib (%):(peak area of Alvocidib in sample/peak area of Alvocidib in reaction solution containing 0.2 μmol/L Alvocidib)×100
(§3) The measurement conditions for LC-MS/MS are as follows. • HPLC: Prominence system (Shimadzu Corporation) • MS/MS: • Example 1, Example 2, Example 3, Example 4, Example 5, Example 6, Comparative Example 8 (mouse), Comparative Example 10 (mouse) and Comparative Example 12 (mouse) • QTRAP5500 (SCIEX) • Comparative Example 6, Comparative Example 7, Comparative Example 8 (human), Comparative Example 9, Comparative Example 10 (human) and Comparative Example 12 (human) • 4000 QTRAP (SCIEX) • column: • other than Example 3 and Example 4 • Cadenza CD-C18, 3 μm, 50×2 mm (Imtakt Corporation) • Example 3 and Example 4 • Kinetex C8, 2.6 μm, 50×2.1 mm (Phenomenex) • column temperature: 40° C. • mobile phase: • A: water containing 0.1% formic acid • B: acetonitrile containing 0.1% formic acid • A/B (min): • Example 1, Example 2, Example 5, Example 6, Comparative Example 8 (mouse), Comparative Example 10 (mouse) and Comparative Example 12 (mouse) • 90/10(0)→40/60(5.0)→10/90(5.1)→10/90(6.5)→90/10(6.6)→90/10(8.0) • Example 3 and Example 4 • 86/14(0)→86/14(3.5)→10/90(5.5)→10/90(6.5)→86/14(6.6)→86/14(9.5) • Comparative Example 6, Comparative Example 7, Comparative Example 8 (human), Comparative Example 9, Comparative Example 10 (human) and Comparative Example 12 (human) • 90/10(0)→10/90(2.5)→10/90(3.5)→90/10(3.6)→90/10(5.0) • flow rate: 0.4 mL/min • detection: ESI (positive mode) • injection: 1 to 5 μL

[3] = Evaluation of conversion rate to active form in BALB/c mouse plasma (Experimental Example 3); format: in vitro ADME; conditions: BALB/c, mouse, 0.2 μmol/L
Procedure: as §1, §2, §3

CCOC(=O)O[C@@H]1CN(C)CC[C@@H]1c1c(O)cc(O)c2c(=O)cc(-c3ccccc3Cl)oc12 [Comparative Example 3, reference compound]
Production rate of Alvocidib ([1]; pH5.0, 0 hr): 1.2%
Residual rate ([1]; pH5.0, 0 hr): 90.6%
Production rate of Alvocidib ([1]; pH5.0, 0.5 hr): 1.2%
Residual rate ([1]; pH5.0, 0.5 hr): 90.6%
Production rate of Alvocidib ([1]; pH5.0, 1 hr): 1.2%
Residual rate ([1]; pH5.0, 1 hr): 90.7%
Production rate of Alvocidib ([1]; pH5.0, 2 hr): 1.3%
Residual rate ([1]; pH5.0, 2 hr): 90.2%
Production rate of Alvocidib ([1]; pH5.0, 3 hr): 1.2%
Residual rate ([1]; pH5.0, 3 hr): 90.6%
Production rate of Alvocidib ([1]; pH5.5, 0 hr): 1.1%
Residual rate ([1]; pH5.5, 0 hr): 90.9%
Production rate of Alvocidib ([1]; pH5.5, 0.5 hr): 1.1%
Residual rate ([1]; pH5.5, 0.5 hr): 90.9%
Production rate of Alvocidib ([1]; pH5.5, 1 hr): 1.2%
Residual rate ([1]; pH5.5, 1 hr): 90.6%
Production rate of Alvocidib ([1]; pH5.5, 2 hr): 1.2%
Residual rate ([1]; pH5.5, 2 hr): 89.9%
Production rate of Alvocidib ([1]; pH5.5, 3 hr): 1.1%
Residual rate ([1]; pH5.5, 3 hr): 90.7%
Production rate of Alvocidib ([1]; pH6.0, 0 hr): 1.1%
Residual rate ([1]; pH6.0, 0 hr): 91.0%
Production rate of Alvocidib ([1]; pH6.0, 0.5 hr): 1.2%
Residual rate ([1]; pH6.0, 0.5 hr): 90.8%
Production rate of Alvocidib ([1]; pH6.0, 1 hr): 1.1%
Residual rate ([1]; pH6.0, 1 hr): 90.9%
Production rate of Alvocidib ([1]; pH6.0, 2 hr): 1.2%
Residual rate ([1]; pH6.0, 2 hr): 90.0%
Production rate of Alvocidib ([1]; pH6.0, 3 hr): 1.2%
Residual rate ([1]; pH6.0, 3 hr): 90.9%
Production rate of Alvocidib ([1]; pH6.5, 0 hr): 1.1%
Residual rate ([1]; pH6.5, 0 hr): 90.8%
Production rate of Alvocidib ([1]; pH6.5, 0.5 hr): 1.1%
Residual rate ([1]; pH6.5, 0.5 hr): 90.9%
Production rate of Alvocidib ([1]; pH6.5, 1 hr): 1.2%
Residual rate ([1]; pH6.5, 1 hr): 90.8%
Production rate of Alvocidib ([1]; pH6.5, 2 hr): 1.3%
Residual rate ([1]; pH6.5, 2 hr): 89.9%
Production rate of Alvocidib ([1]; pH6.5, 3 hr): 1.2%
Residual rate ([1]; pH6.5, 3 hr): 90.8%
Production rate of Alvocidib ([1]; pH7.0, 0 hr): 1.1%
Residual rate ([1]; pH7.0, 0 hr): 91.0%
Production rate of Alvocidib ([1]; pH7.0, 0.5 hr): 1.2%
Residual rate ([1]; pH7.0, 0.5 hr): 91.0%
Production rate of Alvocidib ([1]; pH7.0, 1 hr): 1.2%
Residual rate ([1]; pH7.0, 1 hr): 90.9%
Production rate of Alvocidib ([1]; pH7.0, 2 hr): 1.4%
Residual rate ([1]; pH7.0, 2 hr): 89.8%
Production rate of Alvocidib ([1]; pH7.0, 3 hr): 1.3%
Residual rate ([1]; pH7.0, 3 hr): 90.8%
Production rate of Alvocidib ([1]; pH7.4, 0 hr): 1.1%
Residual rate ([1]; pH7.4, 0 hr): 91.0%
Conversion to Alvocidib at pH 7.4 ([1]; pH 7.4, 37° C., up to 3 hours): slowly converted to Alvocidib
Production rate of Alvocidib ([1]; pH7.4, 0.5 hr): 1.2%
Residual rate ([1]; pH7.4, 0.5 hr): 91.0%
Production rate of Alvocidib ([1]; pH7.4, 1 hr): 1.2%
Residual rate ([1]; pH7.4, 1 hr): 91.0%
Production rate of Alvocidib ([1]; pH7.4, 2 hr): 1.4%
Residual rate ([1]; pH7.4, 2 hr): 90.1%
Production rate of Alvocidib ([1]; pH7.4, 3 hr): 1.3%
Residual rate ([1]; pH7.4, 3 hr): 90.8%
Production rate (%) of Alvocidib ([2]; 0 min): 1%
Residual rate (%) of test compound ([2]; 0 min): 100%
Production rate (%) of Alvocidib ([2]; 60 min): 1%
Residual rate (%) of test compound ([2]; 60 min): 78%
Production rate (%) of Alvocidib ([2]; 120 min): 2%
Residual rate (%) of test compound ([2]; 120 min): 101%
Production rate (%) of Alvocidib ([3]; 0 min): 1%
Residual rate (%) of test compound ([3]; 0 min): 100%
Production rate (%) of Alvocidib ([3]; 60 min): 7%
Residual rate (%) of test compound ([3]; 60 min): 90%
Production rate (%) of Alvocidib ([3]; 120 min): 13%
Residual rate (%) of test compound ([3]; 120 min): 78%
